Data on 14 compounds can be found in PubChem BioAssay (NCI).

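Growth conditions: 96-well plates. Treatment: test compound, 48 hours, 5 concentrations. Analysis: linear interpolation between bracketing concentrations; unreached endpoints set to highest concentration. GI50 marks 50% less growth. TGI is the concentration that stops growth completely.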

Some test systems named below: KM12 colon; MALME-3M melanoma; NCI-H226 lung; RPMI-8226 leukemia; SN12C renal; SNB-75 CNS; UO-31 renal; RXF 393 renal; MDA-MB-231 breast.
Holding throughout (assay): NCI anticancer screen, dose series, 48 h

Turning to `COC(=O)NC(=O)c1cn(C2OC(CO)C(O)C2O)c(=O)[nH]c1=O` (stereo unspecified), the TGI in the test on KM12 colon, with MALME-3M melanoma, with NCI-H226 lung, with RPMI-8226 leukemia, in the test with SN12C renal and with SNB-75 CNS was above 100 µM each time. The compound further came in with a TGI in the test with UO-31 renal above 100 µM.
For `N.N.N.N.[Co+3].[N-]=[N+]=[N-].[N-]=[N+]=[N-].[N-]=[N+]=[N-]`, the GI50 is above 100 µM with KM12 colon; 78.1 µM in the test on MALME-3M melanoma; above 100 µM in the test with RPMI-8226 leukemia; above 100 µM in the test on SN12C renal; above 100 µM in the test on SNB-75 CNS; 29.2 µM with UO-31 renal. In addition, the TGI in the test with KM12 colon, with MALME-3M melanoma, in the test with RPMI-8226 leukemia, in the test on SN12C renal, with SNB-75 CNS and with UO-31 renal was above 100 µM each time.
For `O=C1CC(O)CC(=O)C1=C(O)CCCCCCCCCCc1ccccc1` (stereo unspecified), the TGI with KM12 colon was above 100 µM; in the test on NCI-H226 lung, 94.7 µM; in the test with RPMI-8226 leukemia, above 100 µM; with RXF 393 renal it was above 100 µM; in the test on SN12C renal, above 100 µM; in the test with SNB-75 CNS, above 100 µM. The TGI in the test with UO-31 renal was above 100 µM.
For the compound `COc1ccc(C23C(=O)c4ccccc4N2O[C@H]2C(=O)N(c4ccccc4)C(=O)[C@H]23)cc1` (stereo partly specified), the TGI in the test on KM12 colon, in the test on MALME-3M melanoma, in the test on NCI-H226 lung, with RPMI-8226 leukemia, with RXF 393 renal and in the test with SN12C renal was above 100 µM in each case. Besides, the TGI with SNB-75 CNS and in the test on UO-31 renal was above 100 µM each time.
As to `CN1CCC2(CC1)ONC1=NCCN12`, the GI50 is 26.6 µM in the test with KM12 colon; 20.1 µM with MALME-3M melanoma; 46 µM with MDA-MB-231 breast; 21.8 µM with NCI-H226 lung; 15.8 µM in the test on SN12C renal; 66.8 µM with SNB-75 CNS. Also, the GI50 in the test on UO-31 renal was 45.3 µM. In addition, the TGI in the test with KM12 colon is above 100 µM; with MALME-3M melanoma, 73.7 µM; with MDA-MB-231 breast, above 100 µM; in the test on NCI-H226 lung, 63.5 µM; in the test on SN12C renal it was 40.2 µM; with SNB-75 CNS it was above 100 µM. Moreover, the TGI in the test on UO-31 renal was above 100 µM.
As to `N.N.N.N.N.NC(=O)c1nn[n-]n1.[Cl-].[Co+3]`, the GI50 in the test on KM12 colon, in the test with MALME-3M melanoma, in the test with RPMI-8226 leukemia, in the test on RXF 393 renal, in the test with SN12C renal and in the test with SNB-75 CNS was above 100 µM in each case. In addition, the GI50 with UO-31 renal was above 100 µM. The TGI in the test on KM12 colon, in the test on MALME-3M melanoma, with RPMI-8226 leukemia, in the test with RXF 393 renal, in the test with SN12C renal and with SNB-75 CNS was above 100 µM throughout. The compound further returned a TGI in the test on UO-31 renal above 100 µM.
With `O=C(COc1ccc(Cl)cc1)N1N=C(c2ccc(Cl)cc2)CC1(O)c1ccccc1` (stereo unspecified), the TGI in the test on KM12 colon is 31.4 µM; in the test with MALME-3M melanoma, 47.4 µM; in the test on NCI-H226 lung, 48.1 µM; in the test with RPMI-8226 leukemia, above 37.6 µM; with SN12C renal it was 11.4 µM; with SNB-75 CNS, above 72.7 µM. In the test with UO-31 renal, this compound came in with a TGI above 100 µM.
With `Cc1cccc(/C=C/c2c(C(=O)/C=C/c3ccccc3)c(C)nc3ccccc23)c1`, the GI50 is 1.72 µM in the test with KM12 colon; 1.79 µM in the test with MALME-3M melanoma; 1.73 µM in the test with NCI-H226 lung; 1.51 µM with RXF 393 renal; 1.68 µM in the test with SN12C renal; 1.42 µM in the test with SNB-75 CNS. For the same compound, the GI50 in the test with UO-31 renal is 1.26 µM. For the same compound, the TGI in the test with KM12 colon amounted to 3.56 µM; in the test with MALME-3M melanoma, 3.2 µM; with NCI-H226 lung it was 3.82 µM; in the test on RXF 393 renal, 2.86 µM; in the test on SN12C renal, 3.5 µM; with SNB-75 CNS, 2.95 µM. The TGI in the test on UO-31 renal stood at 2.51 µM.
`CC1(C)O[C@H]2[C@H](O)C[C@](O)(CO)C[C@H]2O1`: the TGI in the test on KM12 colon, in the test with MALME-3M melanoma, with NCI-H226 lung, in the test on RPMI-8226 leukemia, in the test with RXF 393 renal and in the test on SN12C renal was above 100 µM each time. Also, the TGI in the test on SNB-75 CNS and in the test with UO-31 renal was above 100 µM in each case.
Take `O=C(O)CCN(CCCCN(CCC(=O)O)CCC(=O)O)CCC(=O)O`: the TGI with KM12 colon, with MALME-3M melanoma, in the test with RPMI-8226 leukemia, in the test on SN12C renal and with SNB-75 CNS was above 100 µM in each case.
Regarding `Cc1cc(CC(=O)NCCO)n(CCO)c(=O)c1`, the TGI with KM12 colon, in the test with MALME-3M melanoma, in the test on RXF 393 renal, in the test with SN12C renal, in the test on SNB-75 CNS and in the test on UO-31 renal was above 100 µM in each case.
Take `COC(=O)c1ccc(-c2nc3cc(Cl)c(Cl)cc3nc2C#N)cc1`: the GI50 in the test with KM12 colon, in the test on MALME-3M melanoma, in the test with MDA-MB-231 breast, in the test with NCI-H226 lung, with RXF 393 renal and in the test on SN12C renal was above 100 µM each time. Moreover, the GI50 with SNB-75 CNS and with UO-31 renal was above 100 µM in each case. Also, the TGI in the test with KM12 colon, with MALME-3M melanoma, with MDA-MB-231 breast, in the test with NCI-H226 lung, in the test with RXF 393 renal and with SN12C renal was above 100 µM throughout. Also, the TGI in the test on SNB-75 CNS and in the test on UO-31 renal was above 100 µM throughout.
As for `CCOC(=O)C12CCCC1(O)N(NC(=O)OC(C)(C)C)C(C)=C2C(=O)OC` (stereo unspecified), the TGI with KM12 colon, in the test on MALME-3M melanoma, in the test with NCI-H226 lung, with RPMI-8226 leukemia, with SN12C renal and with UO-31 renal was above 100 µM each time.
Consider `COc1ccc(/C=N/N=C(\N)NO)cc1O`, for which the TGI in the test on KM12 colon is above 100 µM; with MALME-3M melanoma, 63.6 µM; in the test with NCI-H226 lung it was above 100 µM; in the test on RPMI-8226 leukemia it was above 100 µM; in the test with RXF 393 renal, above 100 µM; with SN12C renal, above 100 µM. In the test with UO-31 renal, this compound registered a TGI above 100 µM.
